Reference: ChEMBL document CHEMBL1143150, “Design of azidoproline containing gluten peptides to suppress CD4+ T-cell responses associated with celiac disease” (Bioorg Med Chem, 2008)
Activity calls are given as the source filed them. The rule behind the calls is not given here. Numbered stars: 1 amine (or outer) side, 2 acyl side, 3 side chain; on linkers, the order of the positions; unused ones are H or OH. Square brackets hold non-standard residues; d marks the D form. Side chains are listed from the residue outwards. Peptide text beside a SMILES is read from it. * marks the point of attachment. X3 = O=C([C@@H]1C[C@@H](n2cc(C(=O)[*:3])nn2)CN1[*:1])[*:2]; X1 = O=C([C@@H]1C[C@H](n2cc(C(=O)[*:3])nn2)CN1[*:1])[*:2]; X5 = CNC(=O)c1cn([C@@H]2C[C@@H](C(=O)[*:2])N([*:1])C2)nn1; X6 = CNC(=O)c1cn([C@H]2C[C@@H](C(=O)[*:2])N([*:1])C2)nn1; X4 = [N-]=[N+]=N[C@@H]1C[C@@H](C(=O)[*:2])N([*:1])C1; Pro(cis-4-N3) = [N-]=[N+]=N[C@@H]1CN[C@H](C(=O)O)C1; pGlu = O=C1CC[C@@H](C(=O)O)N1; X2 = NC(=O)CCCC(=O)*

test system: not listed separately; assay: Binding affinity to HLA-DQ2 expressed in EBV-transformed B cells; assay type: cell-based; settings: not given

CC(C)C[C@H](NC(=O)CN)C(=O)N[C@@H](CCC(N)=O)C(=O)N1CCC[C@H]1C(=O)N[C@@H](Cc1ccccc1)C(=O)N1C[C@@H](N=[N+]=[N-])C[C@H]1C(=O)N[C@@H](CCC(N)=O)C(=O)N1CCC[C@H]1C(=O)N[C@@H](CCC(=O)O)C(=O)N[C@@H](CC(C)C)C(=O)N1CCC[C@H]1C(=O)N[C@@H](Cc1ccc(O)cc1)C(=O)N1CCC[C@H]1C(=O)N[C@@H](CCC(N)=O)C(=O)O (H-GLQPF[Pro(cis-4-N3)]QPELPYPQ-OH) and CC(C)C[C@H](NC(=O)CCCC(N)=O)C(=O)N[C@@H](CCC(N)=O)C(=O)N1CCC[C@H]1C(=O)N[C@@H](Cc1ccccc1)C(=O)N1C[C@@H](N=[N+]=[N-])C[C@H]1C(=O)N[C@@H](CCC(N)=O)C(=O)N1CCC[C@H]1C(=O)N[C@@H](CCC(=O)O)C(=O)N[C@@H](CC(C)C)C(=O)N1CCC[C@H]1C(=O)N[C@@H](Cc1ccc(O)cc1)C(=O)N1CCC[C@H]1C(=O)N[C@@H](CCC(N)=O)C(=O)O (X2-LQPF[Pro(cis-4-N3)]QPELPYPQ-OH) are within 1.5-fold of each other in IC50: 9.4 µM for the first, 7.2 µM for the second.

CC(C)C[C@H](NC(=O)[C@H](CCC(N)=O)NC(=O)[C@@H](N)CC(C)C)C(=O)N[C@@H](CCC(N)=O)C(=O)N1CCC[C@H]1C(=O)N[C@@H](Cc1ccccc1)C(=O)N1C[C@@H](N=[N+]=[N-])C[C@H]1C(=O)N[C@@H](CCC(N)=O)C(=O)N1CCC[C@H]1C(=O)N[C@@H](CCC(=O)O)C(=O)N[C@@H](CC(C)C)C(=O)N1CCC[C@H]1C(=O)N[C@@H](Cc1ccc(O)cc1)C(=O)N1CCC[C@H]1C(=O)N[C@@H](CCC(N)=O)C(=O)O and CC(C)C[C@H](NC(=O)[C@@H](N)CCC(N)=O)C(=O)N[C@@H](CCC(N)=O)C(=O)N1CCC[C@H]1C(=O)N[C@@H](Cc1ccccc1)C(=O)N1C[C@@H](N=[N+]=[N-])C[C@H]1C(=O)N[C@@H](CCC(N)=O)C(=O)N1CCC[C@H]1C(=O)N[C@@H](CCC(=O)O)C(=O)N[C@@H](CC(C)C)C(=O)N1CCC[C@H]1C(=O)N[C@@H](Cc1ccc(O)cc1)C(=O)N1CCC[C@H]1C(=O)N[C@@H](CCC(N)=O)C(=O)O (H-QLQPF[Pro(cis-4-N3)]QPELPYPQ-OH) are within 1.5-fold of each other in IC50: 8.6 µM for the first, 10.7 µM for the second.

First: CC(C)C[C@H](NC(=O)[C@H](CCC(=O)O)NC(=O)[C@@H]1CCCN1C(=O)[C@H](CCC(N)=O)NC(=O)[C@@H]1C[C@H](N=[N+]=[N-])CN1C(=O)[C@H](Cc1ccccc1)NC(=O)[C@@H]1CCCN1C(=O)[C@H](CCC(N)=O)NC(=O)[C@@H](N)CC(C)C)C(=O)N1CCC[C@H]1C(=O)N[C@@H](Cc1ccc(O)cc1)C(=O)N1CCC[C@H]1C(=O)N[C@@H](CCC(N)=O)C(=O)O (H-LQPF[Pro(cis-4-N3)]QPELPYPQ-OH)
Second: CC(C)C[C@H](NC(=O)[C@@H](N)CCC(N)=O)C(=O)N[C@@H](CCC(N)=O)C(=O)N1CCC[C@H]1C(=O)N[C@@H](Cc1ccccc1)C(=O)N1CCC[C@H]1C(=O)N[C@@H](CCC(N)=O)C(=O)N1CCC[C@H]1C(=O)N[C@@H](CCC(=O)O)C(=O)N[C@@H](CC(C)C)C(=O)N1CCC[C@H]1C(=O)N[C@@H](Cc1ccc(O)cc1)C(=O)O (H-QLQPFPQPELPY-OH)
The IC50 of the first is 2.5-fold lower: 6.9 µM for the first, 17.2 µM for the second.

same assay, conditions: read-out: IC50

CC(C)C[C@H](NC(=O)[C@@H]1CCC(=O)N1)C(=O)N[C@@H](CCC(N)=O)C(=O)N1CCC[C@H]1C(=O)N[C@@H](Cc1ccccc1)C(=O)N1CCC[C@H]1C(=O)N[C@@H](CCC(N)=O)C(=O)N1C[C@H](N=[N+]=[N-])C[C@H]1C(=O)N[C@@H](CCC(=O)O)C(=O)N[C@@H](CC(C)C)C(=O)N1CCC[C@H]1C(=O)N[C@@H](Cc1ccc(O)cc1)C(=O)N1CCC[C@H]1C(=O)N[C@@H](CCC(N)=O)C(=O)O ([pGlu]LQPFPQ[X4]ELPYPQ-OH) and CC(C)C[C@H](NC(=O)[C@@H]1CCC(=O)N1)C(=O)N[C@@H](CCC(N)=O)C(=O)N1CCC[C@H]1C(=O)N[C@@H](Cc1ccccc1)C(=O)N1C[C@@H](N=[N+]=[N-])C[C@H]1C(=O)N[C@@H](CCC(N)=O)C(=O)N1CCC[C@H]1C(=O)N[C@@H](CCC(=O)O)C(=O)N[C@@H](CC(C)C)C(=O)N1CCC[C@H]1C(=O)N[C@@H](Cc1ccc(O)cc1)C(=O)N1CCC[C@H]1C(=O)N[C@@H](CCC(N)=O)C(=O)O ([pGlu]LQPF[Pro(cis-4-N3)]QPELPYPQ-OH) are within 1.5-fold of each other in IC50: 2.3 µM for the first, 3.2 µM for the second.

COC(=O)[C@H](Cc1ccccc1)NC(=O)c1cn([C@@H]2C[C@@H](C(=O)N[C@@H](CCC(=O)O)C(=O)N[C@@H](CC(C)C)C(=O)N3CCC[C@H]3C(=O)N[C@@H](Cc3ccc(O)cc3)C(=O)N3CCC[C@H]3C(=O)N[C@@H](CCC(N)=O)C(=O)O)N(C(=O)[C@H](CCC(N)=O)NC(=O)[C@@H]3CCCN3C(=O)[C@H](Cc3ccccc3)NC(=O)[C@@H]3CCCN3C(=O)[C@H](CCC(N)=O)NC(=O)[C@H](CC(C)C)NC(=O)[C@@H]3CCC(=O)N3)C2)nn1 ([pGlu]LQPFPQ[X3]([Phe-OMe])ELPYPQ-OH) and COC(=O)[C@H](Cc1ccccc1)NC(=O)c1cn([C@H]2C[C@@H](C(=O)N[C@@H](CCC(=O)O)C(=O)N[C@@H](CC(C)C)C(=O)N3CCC[C@H]3C(=O)N[C@@H](Cc3ccc(O)cc3)C(=O)N3CCC[C@H]3C(=O)N[C@@H](CCC(N)=O)C(=O)O)N(C(=O)[C@H](CCC(N)=O)NC(=O)[C@@H]3CCCN3C(=O)[C@H](Cc3ccccc3)NC(=O)[C@@H]3CCCN3C(=O)[C@H](CCC(N)=O)NC(=O)[C@H](CC(C)C)NC(=O)[C@@H]3CCC(=O)N3)C2)nn1 ([pGlu]LQPFPQ[X1]([Phe-OMe])ELPYPQ-OH) are within 1.5-fold of each other in IC50: 3.2 µM for the first, 2.3 µM for the second.

CNC(=O)c1cn([C@@H]2C[C@@H](C(=O)N[C@@H](CCC(=O)O)C(=O)N[C@@H](CC(C)C)C(=O)N3CCC[C@H]3C(=O)N[C@@H](Cc3ccc(O)cc3)C(=O)N3CCC[C@H]3C(=O)N[C@@H](CCC(N)=O)C(=O)O)N(C(=O)[C@H](CCC(N)=O)NC(=O)[C@@H]3CCCN3C(=O)[C@H](Cc3ccccc3)NC(=O)[C@@H]3CCCN3C(=O)[C@H](CCC(N)=O)NC(=O)[C@H](CC(C)C)NC(=O)[C@@H]3CCC(=O)N3)C2)nn1 ([pGlu]LQPFPQ[X5]ELPYPQ-OH) and CNC(=O)c1cn([C@@H]2C[C@@H](C(=O)N[C@@H](CCC(N)=O)C(=O)N3CCC[C@H]3C(=O)N[C@@H](CCC(=O)O)C(=O)N[C@@H](CC(C)C)C(=O)N3CCC[C@H]3C(=O)N[C@@H](Cc3ccc(O)cc3)C(=O)N3CCC[C@H]3C(=O)N[C@@H](CCC(N)=O)C(=O)O)N(C(=O)[C@H](Cc3ccccc3)NC(=O)[C@@H]3CCCN3C(=O)[C@H](CCC(N)=O)NC(=O)[C@H](CC(C)C)NC(=O)[C@@H]3CCC(=O)N3)C2)nn1 ([pGlu]LQPF[X5]QPELPYPQ-OH) are the same in IC50: 5.8 µM for the first, 5.8 µM for the second.

First: CC(C)C[C@H](NC(=O)[C@@H]1CCC(=O)N1)C(=O)N[C@@H](CCC(N)=O)C(=O)N1CCC[C@H]1C(=O)N[C@@H](Cc1ccccc1)C(=O)N1C[C@H](N=[N+]=[N-])C[C@H]1C(=O)N[C@@H](CCC(N)=O)C(=O)N1CCC[C@H]1C(=O)N[C@@H](CCC(=O)O)C(=O)N[C@@H](CC(C)C)C(=O)N1CCC[C@H]1C(=O)N[C@@H](Cc1ccc(O)cc1)C(=O)N1CCC[C@H]1C(=O)N[C@@H](CCC(N)=O)C(=O)O ([pGlu]LQPF[X4]QPELPYPQ-OH)
Second: CC(C)C[C@H](NC(=O)[C@@H]1CCC(=O)N1)C(=O)N[C@@H](CCC(N)=O)C(=O)N1CCC[C@H]1C(=O)N[C@@H](Cc1ccccc1)C(=O)N1CCC[C@H]1C(=O)N[C@@H](CCC(N)=O)C(=O)N1C[C@@H](N=[N+]=[N-])C[C@H]1C(=O)N[C@@H](CCC(=O)O)C(=O)N[C@@H](CC(C)C)C(=O)N1CCC[C@H]1C(=O)N[C@@H](Cc1ccc(O)cc1)C(=O)N1CCC[C@H]1C(=O)N[C@@H](CCC(N)=O)C(=O)O ([pGlu]LQPFPQ[Pro(cis-4-N3)]ELPYPQ-OH)
The IC50 of the first is 2.3-fold higher: 5.5 µM for the first, 2.4 µM for the second.

First: COC(=O)[C@H](Cc1ccccc1)NC(=O)c1cn([C@H]2C[C@@H](C(=O)N[C@@H](CCC(N)=O)C(=O)N3CCC[C@H]3C(=O)N[C@@H](CCC(=O)O)C(=O)N[C@@H](CC(C)C)C(=O)N3CCC[C@H]3C(=O)N[C@@H](Cc3ccc(O)cc3)C(=O)N3CCC[C@H]3C(=O)N[C@@H](CCC(N)=O)C(=O)O)N(C(=O)[C@H](Cc3ccccc3)NC(=O)[C@@H]3CCCN3C(=O)[C@H](CCC(N)=O)NC(=O)[C@H](CC(C)C)NC(=O)[C@@H]3CCC(=O)N3)C2)nn1 ([pGlu]LQPF[X1]([Phe-OMe])QPELPYPQ-OH)
Second: COC(=O)[C@H](Cc1ccccc1)NC(=O)c1cn([C@@H]2C[C@@H](C(=O)N[C@@H](CCC(N)=O)C(=O)N3CCC[C@H]3C(=O)N[C@@H](CCC(=O)O)C(=O)N[C@@H](CC(C)C)C(=O)N3CCC[C@H]3C(=O)N[C@@H](Cc3ccc(O)cc3)C(=O)N3CCC[C@H]3C(=O)N[C@@H](CCC(N)=O)C(=O)O)N(C(=O)[C@H](Cc3ccccc3)NC(=O)[C@@H]3CCCN3C(=O)[C@H](CCC(N)=O)NC(=O)[C@H](CC(C)C)NC(=O)[C@@H]3CCC(=O)N3)C2)nn1 ([pGlu]LQPF[X3]([Phe-OMe])QPELPYPQ-OH)
The IC50 of the first is 22-fold lower: 1.3 µM for the first, 29.2 µM for the second.

Compared with CNC(=O)c1cn([C@H]2C[C@@H](C(=O)N[C@@H](CCC(=O)O)C(=O)N[C@@H](CC(C)C)C(=O)N3CCC[C@H]3C(=O)N[C@@H](Cc3ccc(O)cc3)C(=O)N3CCC[C@H]3C(=O)N[C@@H](CCC(N)=O)C(=O)O)N(C(=O)[C@H](CCC(N)=O)NC(=O)[C@@H]3CCCN3C(=O)[C@H](Cc3ccccc3)NC(=O)[C@@H]3CCCN3C(=O)[C@H](CCC(N)=O)NC(=O)[C@H](CC(C)C)NC(=O)[C@@H]3CCC(=O)N3)C2)nn1 ([pGlu]LQPFPQ[X6]ELPYPQ-OH), CNC(=O)c1cn([C@H]2C[C@@H](C(=O)N[C@@H](CCC(N)=O)C(=O)N3CCC[C@H]3C(=O)N[C@@H](CCC(=O)O)C(=O)N[C@@H](CC(C)C)C(=O)N3CCC[C@H]3C(=O)N[C@@H](Cc3ccc(O)cc3)C(=O)N3CCC[C@H]3C(=O)N[C@@H](CCC(N)=O)C(=O)O)N(C(=O)[C@H](Cc3ccccc3)NC(=O)[C@@H]3CCCN3C(=O)[C@H](CCC(N)=O)NC(=O)[C@H](CC(C)C)NC(=O)[C@@H]3CCC(=O)N3)C2)nn1 ([pGlu]LQPF[X6]QPELPYPQ-OH) is 2-fold lower in IC50: 9 µM for the first, 4.6 µM for the second. The second is the more potent here.

test system: T-cell; assay: Blockade of HLA-DQ2 specific human CD4+ T cell proliferation in presence of alpha-9-gluten peptide after 48 hrs; assay type: functional, cell-based; settings: not given

In the case of COC(=O)[C@H](Cc1ccccc1)NC(=O)c1cn([C@H]2C[C@@H](C(=O)N[C@@H](CCC(N)=O)C(=O)N3CCC[C@H]3C(=O)N[C@@H](CCC(=O)O)C(=O)N[C@@H](CC(C)C)C(=O)N3CCC[C@H]3C(=O)N[C@@H](Cc3ccc(O)cc3)C(=O)N3CCC[C@H]3C(=O)N[C@@H](CCC(N)=O)C(=O)O)N(C(=O)[C@H](Cc3ccccc3)NC(=O)[C@@H]3CCCN3C(=O)[C@H](CCC(N)=O)NC(=O)[C@H](CC(C)C)NC(=O)[C@@H]3CCC(=O)N3)C2)nn1 ([pGlu]LQPF[X1]([Phe-OMe])QPELPYPQ-OH), the Activity is reported as “Active”.
